Experimental data as given in patent US4816467A, “Heteroaryl 3-oxo-propanenitrile derivatives, pharmaceutical compositions and use” (Farmitalia Carlo Erba s.r.l, priority 1987, dated 1989).

Experiments:
S. flexneri = assay: Activity on S. flexneri infection in mice; assay type: in vivo; details: infection 3 × LD50 i.p., controls 100
Method: (§1) The compound of the present invention 2-cyano-3-(1,4-dihydro-1-phenyl-[1]-benzothiopyrano[4,3-c]pyrazol-3-yl)-3- oxo-N-phenyl-propanamide (internal code FCE 24578), for instance, was tested, according to the procedure described by Cleeland R., Grunberg E. 1986, 825-876, "Antibiotics in Laboratory Medicine" Lorian V. Editor (Williams and Wilkins), in the following models of infection: L. monocytogenes; D. pneumoniae; S. flexneri and P. aeruginosa; the last one being performed in cyclophosphamide immunosuppressed mice, according to Cryz S. J., Furer E., Germanier R., 1983, Infect. Imm., 39, 1067-1071.
(§2) Activity of FCE 24578 on S. flexneri and D. pneumoniae
(§3) Infection (3 × LD50) was given i.p.
(§4) Treatments with FCE 24578 or vehicle were performed on -3, -2, -1 and 0

[1] = approximate acute toxicity (LD50) in the mouse, per os; details: in vivo, po, single administration of increasing doses, measured on the seventh day
Method: For example, the approximate acute toxicity (LD50) in the mouse of the compounds 2-cyano-3-(1,4-dihydro-1-phenyl-[1]-benzopyrano[4,3-c]pyrazol-3-yl)-3-oxo- N-phenyl-propanamide, and 2-cyano-3-(1,4-dihydro-1-phenyl-[1]-benzothiopyrano[4,3-c]pyrazol-3-yl)-3- oxo-N-phenyl-propanamide, determined per os with single administration of increasing doses and measured on the seventh day after the day of treatment, is higher than 800 mg/kg. Analogous toxicity data have been found for the other compounds of the invention.

D. pneumoniae = assay: Activity on D. pneumoniae infection in mice; assay type: in vivo; details: infection 3 × LD50 i.p.
Method: as §1, §2, §3, §4
MST = Mean Survival Time.
*= significant for p < 0.01.

P. aeruginosa = assay: Activity on P. aeruginosa infection in immunosuppressed mice; assay type: in vivo; details: cyclophosphamide immunosuppressed; for % mortality 1 × LD50: P. aeruginosa 1 × LD50 i.v., controls 80; for % mortality 2 × LD50: P. aeruginosa 2 × LD50 i.v., controls 90
Method: as §1
Activity of FCE 24578 on P. aeruginosa infection
in immunosuppressed mice
Cyclophosphamide (200 mg/kg) was administered i.p. on the fourth day
The treatments with FCE 24578 or vehicle were performed on -3, -2, -1 and
0 day before the infection (2 × LD50 and 1 × LD50)

L. monocytogenes = assay: Activity on L. monocytogenes infection in mice; assay type: in vivo; details: L. monocytogenes 1 × LD50 i.v., controls 75
Method: as §1
Activity of FCE 24578 on L. monocytogenes infection
Treatments with FCE 2457B or vehicle were performed on -3, -2, -1 and 0
day before the infection (1 × LD50) given i.v.

| SMILES | % mortality (S. flexneri; 10 mg/kg i.p. on -3, -2, -1 and 0 day before infection) [%] | % mortality (S. flexneri; 50 mg/kg i.p. on -3, -2, -1 and 0 day before infection) [%] | LD50 at 168 h [1] [mg/kg] | MST (Mean Survival Time) (D. pneumoniae; 10 mg/kg i.p. on -3, -2, -1 and 0 day before infection, controls 3.1) [days] | MST (Mean Survival Time) (D. pneumoniae; 50 mg/kg i.p. on -3, -2, -1 and 0 day before infection, controls 3.1, * = significant for p < 0.01) [days] | % mortality 1 × LD50 (P. aeruginosa; 10 mg/kg i.p.) [%] | % mortality 1 × LD50 (P. aeruginosa; 50 mg/kg i.p.) [%] | % mortality 2 × LD50 (P. aeruginosa; 10 mg/kg i.p.) [%] | % mortality 2 × LD50 (P. aeruginosa; 50 mg/kg i.p.) [%] | % mortality 1 × LD50 (L. monocytogenes; 10 mg/kg i.p.) [%] | % mortality 1 × LD50 (L. monocytogenes; 50 mg/kg i.p.) [%] | % mortality 1 × LD50 (L. monocytogenes; 50 mg/kg p.o.) [%] | % mortality 1 × LD50 (L. monocytogenes; 250 mg/kg p.o.) [%] |
| --- | --- | --- | --- | --- | --- | --- | --- | --- | --- | --- | --- | --- | --- |
| N#CC(C(=O)Nc1ccccc1)C(=O)c1nn(-c2ccccc2)c2c1CSc1ccccc1-2 (centres unmarked) [FCE 24578, 2-cyano-3-(1,4-dihydro-1-phenyl-[1]-benzothiopyrano[4,3-c]pyrazol-3-yl)-3-oxo-N-phenyl-propanamide] | 40 | 10 | > 800 | 4 | 5.7 | 0 | 0 | 0 | 0 | 12.5 | 0 | 37.5 | 25 |
| N#CC(C(=O)Nc1ccccc1)C(=O)c1nn(-c2ccccc2)c2c1COc1ccccc1-2 (centres unmarked) [FCE 25158, 2-cyano-3-(1,4-dihydro-1-phenyl-[1]-benzopyrano[4,3-c]pyrazol-3-yl)-3-oxo-N-phenyl-propanamide] | – | – | > 800 | – | – | – | – | – | – | – | – | – | – |
